Test system: fungi such as Trichophyton mentagrophytes, Trichophyton rubrum, Candida albicans, Microsporum canis, Aspergillus niger
Experiment: Efficacy against fungi in comparison with other antifungal agents
Settings: in most cases, Trichosporum, Alternaria, Acremonium, Fusarium, Scopulariopsis

With “(R,S)-1-[2-[(7-Chloro-3-benzo[b]thienyl)-methoxy]-2-(2,4-dichlorophenyl)-ethyl]-1H-imidazole [sertaconazole]” the “efficacy against fungi in comparison with econazole, ketonazole, miconazole, or bifonazole” value was “higher efficacy”.

— patent US7615238B2, “Plaster for the treatment of dysfunctions and disorders of nails, comprising sertaconazole” (Trommsdorff GmbH & Co. KG Arzneimitttel, priority 2001, dated 2009)
